{"source": "PubChem BioAssay AID1259407", "about": "(Chemical Carcinogenesis Research Information System (CCRIS), 2018)", "system": "CCRIS mutagenicity, Ames/micronucleus/aberration tests", "assay": "CCRIS mutagenicity studies", "key": {"[1]": {"details": "Test System: AMES SALMONELLA TYPHIMURIUM, Strain/Indicator: TA100, Metabolic Activation: NONE, Method: PREINCUBATION"}, "[2]": {"details": "Test System: AMES SALMONELLA TYPHIMURIUM, Strain/Indicator: TA100, Metabolic Activation: NONE, Method: STANDARD PLATE"}, "[3]": {"details": "Test System: AMES SALMONELLA TYPHIMURIUM, Strain/Indicator: TA98, Metabolic Activation: NONE, Method: PREINCUBATION"}, "[4]": {"details": "Test System: AMES SALMONELLA TYPHIMURIUM, Strain/Indicator: TA98, Metabolic Activation: NONE, Method: STANDARD PLATE"}}, "note": "Calls of active or inactive are those of the source. No rule for the calls is given here.", "data": [{"smiles": "COC1=C(N)C(=O)c2nc(-c3nc(C(=O)O)c(C)c(-c4ccc(OC)c(OC)c4O)c3N)ccc2C1=O", "values": [{"measurement": "mutagenic call", "setting": "Test System: AMES SALMONELLA TYPHIMURIUM, Strain/Indicator: TA102, Metabolic Activation: NONE, Method: STANDARD PLATE", "result": "active; positive"}, {"measurement": "mutagenic call", "setting": "Test System: AMES SALMONELLA TYPHIMURIUM, Strain/Indicator: TA2638, Metabolic Activation: NONE, Method: STANDARD PLATE", "result": "active; positive"}, {"measurement": "mutagenic call", "setting": "Test System: AMES SALMONELLA TYPHIMURIUM, Strain/Indicator: TA2638A, Metabolic Activation: NONE, Method: STANDARD PLATE", "result": "active; positive"}, {"measurement": "mutagenic call", "setting": "Test System: E. COLI, Strain/Indicator: WP2 (PKM101), Metabolic Activation: NONE, Method: STANDARD PLATE", "result": "active; positive"}, {"measurement": "mutagenic call", "setting": "Test System: E. COLI, Strain/Indicator: WP2 UVRA (PKM101), Metabolic Activation: NONE, Method: STANDARD PLATE", "result": "active; positive"}, {"measurement": "mutagenic call", "setting": "Test System: UDS HUMAN FIBROBLASTS, Strain/Indicator: THY INCORP (NON-S-PHASE), Metabolic Activation: NONE, Method: AUTORADIOGRAPHY", "result": "active; positive"}]}, {"smiles": "CCOC(=O)N(CCCC(=O)c1cccnc1)N=O", "values": [{"measurement": "mutagenic call", "setting": "[1]", "result": "active; positive"}]}, {"smiles": "CSc1ncnc2nc[nH]c12", "values": [{"measurement": "mutagenic call", "setting": "[2]", "result": "active; positive"}]}, {"smiles": "C[C@]12CCC(=O)C=C1C=C[C@@H]1[C@@H]2CC[C@@]2(C)[C@H]1CC[C@@]2(O)CCC(=O)O", "values": [{"measurement": "mutagenic call", "setting": "End Point: IN VITRO MICRONUCLEUS, Test System: HUMAN PERIPHERAL LYMPHOCYTES, Metabolic Activation: NONE", "result": "inactive; negative"}, {"measurement": "mutagenic call", "setting": "End Point: IN VITRO MICRONUCLEUS, Test System: HUMAN PRIMARY HEPATOCYTES (FEMALE), Metabolic Activation: NONE", "result": "inactive; negative"}, {"measurement": "mutagenic call", "setting": "End Point: IN VITRO MICRONUCLEUS, Test System: RAT PRIMARY HEPATOCYTES (MALE/FEMALE), Metabolic Activation: NONE", "result": "active; positive"}]}, {"smiles": "C=CCNC1=C2C[C@@H](C)C[C@H](OC)[C@H](O)[C@@H](C)/C=C(\\C)[C@H](OC(N)=O)[C@@H](OC)/C=C\\C=C(/C)C(=O)NC(=CC1=O)C2=O", "values": [{"measurement": "mutagenic call", "setting": "Test System: Mouse lymphoma, Strain/Indicator: L5178Y (tk+/tk-), Metabolic Activation: None, Method: Suspension/plate", "result": "active; positive"}, {"measurement": "mutagenic call", "setting": "Test System: Mouse lymphoma, Strain/Indicator: L5178Y (tk+/tk-), Metabolic Activation: Rat, Liver, S-9, Aroclor 1254, Method: Suspension/plate", "result": "inactive; negative"}]}, {"smiles": "CCCCCCCCCC[N+](C)(C)Cc1ccccc1", "values": [{"measurement": "mutagenic call", "setting": "Test System: AMES SALMONELLA TYPHIMURIUM, Strain/Indicator: TA97, Metabolic Activation: HAMSTER, LIVER, S-9, AROCLOR 1254 (10 OR 30%), Method: PREINCUBATION", "result": "inactive; negative"}, {"measurement": "mutagenic call", "setting": "Test System: AMES SALMONELLA TYPHIMURIUM, Strain/Indicator: TA97, Metabolic Activation: NONE, Method: PREINCUBATION", "result": "inactive; negative"}, {"measurement": "mutagenic call", "setting": "Test System: AMES SALMONELLA TYPHIMURIUM, Strain/Indicator: TA97, Metabolic Activation: RAT, LIVER, S-9, AROCLOR 1254 (10 OR 30%), Method: PREINCUBATION", "result": "inactive; negative"}, {"measurement": "mutagenic call", "setting": "Test System: AMES SALMONELLA TYPHIMURIUM, Strain/Indicator: TA98, Metabolic Activation: HAMSTER, LIVER, S-9, AROCLOR 1254 (10 OR 30%), Method: PREINCUBATION", "result": "inactive; negative"}, {"measurement": "mutagenic call", "setting": "[3]", "result": "inactive; negative"}, {"measurement": "mutagenic call", "setting": "Test System: AMES SALMONELLA TYPHIMURIUM, Strain/Indicator: TA98, Metabolic Activation: RAT, LIVER, S-9, AROCLOR 1254 (10 OR 30%), Method: PREINCUBATION", "result": "inactive; negative"}, {"measurement": "mutagenic call", "setting": "Test System: AMES SALMONELLA TYPHIMURIUM, Strain/Indicator: TA100, Metabolic Activation: HAMSTER, LIVER, S-9, AROCLOR 1254 (10 OR 30%), Method: PREINCUBATION", "result": "inactive; negative"}, {"measurement": "mutagenic call", "setting": "[1]", "result": "inactive; negative"}, {"measurement": "mutagenic call", "setting": "Test System: AMES SALMONELLA TYPHIMURIUM, Strain/Indicator: TA100, Metabolic Activation: RAT, LIVER, S-9, AROCLOR 1254 (10 OR 30%), Method: PREINCUBATION", "result": "inactive; negative"}, {"measurement": "mutagenic call", "setting": "Test System: AMES SALMONELLA TYPHIMURIUM, Strain/Indicator: TA1535, Metabolic Activation: HAMSTER, LIVER, S-9, AROCLOR 1254 (10 OR 30%), Method: PREINCUBATION", "result": "inactive; negative"}, {"measurement": "mutagenic call", "setting": "Test System: AMES SALMONELLA TYPHIMURIUM, Strain/Indicator: TA1535, Metabolic Activation: NONE, Method: PREINCUBATION", "result": "inactive; negative"}, {"measurement": "mutagenic call", "setting": "Test System: AMES SALMONELLA TYPHIMURIUM, Strain/Indicator: TA1535, Metabolic Activation: RAT, LIVER, S-9, AROCLOR 1254 (10 OR 30%), Method: PREINCUBATION", "result": "inactive; negative"}]}, {"smiles": "O=C1Nc2ccc([N+](=O)[O-])cc2C1=O", "values": [{"measurement": "mutagenic call", "setting": "Test System: AMES SALMONELLA TYPHIMURIUM, Strain/Indicator: TA98, Metabolic Activation: HAMSTER, LIVER, S-9, AROCLOR 1254, Method: STANDARD PLATE", "result": "active; positive"}, {"measurement": "mutagenic call", "setting": "[4]", "result": "active; positive"}, {"measurement": "mutagenic call", "setting": "Test System: AMES SALMONELLA TYPHIMURIUM, Strain/Indicator: TA98, Metabolic Activation: RAT, LIVER, S-9, AROCLOR 1254, Method: STANDARD PLATE", "result": "active; positive"}, {"measurement": "mutagenic call", "setting": "Test System: AMES SALMONELLA TYPHIMURIUM, Strain/Indicator: TA100, Metabolic Activation: HAMSTER, LIVER, S-9, AROCLOR 1254, Method: STANDARD PLATE", "result": "active; positive"}, {"measurement": "mutagenic call", "setting": "[2]", "result": "active; positive"}, {"measurement": "mutagenic call", "setting": "Test System: AMES SALMONELLA TYPHIMURIUM, Strain/Indicator: TA100, Metabolic Activation: RAT, LIVER, S-9, AROCLOR 1254, Method: STANDARD PLATE", "result": "active; positive"}, {"measurement": "mutagenic call", "setting": "Test System: MOUSE LYMPHOMA, Strain/Indicator: L5178Y (TK+/TK-), Metabolic Activation: NONE, Method: SUSPENSION/PLATE", "result": "active; positive. reevaluation of results: positive"}, {"measurement": "mutagenic call", "setting": "Test System: MOUSE LYMPHOMA, Strain/Indicator: L5178Y (TK+/TK-), Metabolic Activation: RAT, LIVER, S-9, AROCLOR 1254, Method: SUSPENSION/PLATE", "result": "active; positive. reevaluation of results: equivocal"}]}, {"smiles": "ClCc1cccc2cc3ccc4cccc5ccc(c12)c3c45", "values": [{"measurement": "mutagenic call", "setting": "[4]", "result": "active; positive"}, {"measurement": "mutagenic call", "setting": "[2]", "result": "active; positive"}]}, {"smiles": "O=[N+]([O-])c1ccc2c(c1)CCc1cc3c(cc1-2)CCCC3", "values": [{"measurement": "mutagenic call", "setting": "Test System: AMES SALMONELLA TYPHIMURIUM, Strain/Indicator: TA98(1,8-DNP6), Metabolic Activation: NONE", "result": "active; positive"}, {"measurement": "mutagenic call", "setting": "Test System: AMES SALMONELLA TYPHIMURIUM, Strain/Indicator: TA98(1,8-DNP6), Metabolic Activation: RAT, LIVER, S-9, AROCLOR 1254", "result": "active; positive"}, {"measurement": "mutagenic call", "setting": "Test System: AMES SALMONELLA TYPHIMURIUM, Strain/Indicator: TA98(NR), Metabolic Activation: NONE", "result": "active; positive"}, {"measurement": "mutagenic call", "setting": "Test System: AMES SALMONELLA TYPHIMURIUM, Strain/Indicator: TA98(NR), Metabolic Activation: RAT, LIVER, S-9, AROCLOR 1254", "result": "active; positive"}, {"measurement": "mutagenic call", "setting": "Test System: AMES SALMONELLA TYPHIMURIUM, Strain/Indicator: TA98, Metabolic Activation: NONE", "result": "active; positive"}, {"measurement": "mutagenic call", "setting": "Test System: AMES SALMONELLA TYPHIMURIUM, Strain/Indicator: TA98, Metabolic Activation: RAT, LIVER, S-9, AROCLOR 1254", "result": "active; positive"}, {"measurement": "mutagenic call", "setting": "Test System: AMES SALMONELLA TYPHIMURIUM, Strain/Indicator: TA100(NR), Metabolic Activation: NONE", "result": "active; positive"}, {"measurement": "mutagenic call", "setting": "Test System: AMES SALMONELLA TYPHIMURIUM, Strain/Indicator: TA100(NR), Metabolic Activation: RAT, LIVER, S-9, AROCLOR 1254", "result": "active; positive"}, {"measurement": "mutagenic call", "setting": "Test System: AMES SALMONELLA TYPHIMURIUM, Strain/Indicator: TA100, Metabolic Activation: NONE", "result": "active; positive"}, {"measurement": "mutagenic call", "setting": "Test System: AMES SALMONELLA TYPHIMURIUM, Strain/Indicator: TA100, Metabolic Activation: RAT, LIVER, S-9, AROCLOR 1254", "result": "active; positive"}, {"measurement": "mutagenic call", "setting": "Test System: AMES SALMONELLA TYPHIMURIUM, Strain/Indicator: TA104, Metabolic Activation: NONE", "result": "active; positive"}, {"measurement": "mutagenic call", "setting": "Test System: AMES SALMONELLA TYPHIMURIUM, Strain/Indicator: TA104, Metabolic Activation: RAT, LIVER, S-9, AROCLOR 1254", "result": "active; positive"}]}, {"smiles": "O[C@H]1c2cccc3ccc4cccc(c4c23)[C@@H]1O", "values": [{"measurement": "mutagenic call", "setting": "[3]", "result": "inactive; negative"}, {"measurement": "mutagenic call", "setting": "Test System: AMES SALMONELLA TYPHIMURIUM, Strain/Indicator: TA98, Metabolic Activation: RAT, LIVER, S-9, AROCLOR 1254, Method: PREINCUBATION", "result": "inactive; negative"}, {"measurement": "mutagenic call", "setting": "[1]", "result": "inactive; negative"}, {"measurement": "mutagenic call", "setting": "Test System: AMES SALMONELLA TYPHIMURIUM, Strain/Indicator: TA100, Metabolic Activation: RAT, LIVER, S-9, AROCLOR 1254, Method: PREINCUBATION", "result": "inactive; negative"}]}, {"smiles": "CC(C)=C/C(C)=N/Nc1nncc2ccccc12", "values": [{"measurement": "mutagenic call", "setting": "[2]", "result": "active; positive"}, {"measurement": "mutagenic call", "setting": "Test System: AMES SALMONELLA TYPHIMURIUM, Strain/Indicator: TA100, Metabolic Activation: RAT, LIVER, S-9, PHENOBARBITAL, Method: STANDARD PLATE", "result": "active; positive"}, {"measurement": "mutagenic call", "setting": "Test System: UDS RAT HEPATOCYTES, Strain/Indicator: THY INCORP, Metabolic Activation: NONE, Method: AUTORADIOGRAPHY", "result": "inactive; negative"}]}]}
